Assay results taken from PubChem BioAssay AID602205 (Sanford-Burnham Center for Chemical Genomics, 2012).
pIC50: −log10 of the molar value. Calls of active or inactive are those of the source. The rule behind the calls is not given here.

Biological target: Ubiquitin-conjugating enzyme E2 N (Homo sapiens) (UniProt P61088)
Experiment: UBC13 polyubiquitination inhibitors, SAR follow-up, biochemical, TR-FRET, set 3 (AID 602205)
Conditions: TR-FRET polyubiquitination assay

Ubiquitin-conjugating enzyme E2 N (Homo sapiens), sequence (P61088 whole entry, looked up): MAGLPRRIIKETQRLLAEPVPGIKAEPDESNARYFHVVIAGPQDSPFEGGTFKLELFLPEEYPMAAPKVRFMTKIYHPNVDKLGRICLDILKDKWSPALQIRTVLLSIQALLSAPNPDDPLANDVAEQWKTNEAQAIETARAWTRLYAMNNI

Structure (SMILES)	IC50	pIC50
Cc1ccc(Cl)cc1N1CCN(c2ncnc3c2nc2n3CCCC2)CC1	> 100 µM (inactive)	
COc1cc(OC)c(NC(=O)C2CCN(c3ncnc4c3nc3n4CCCCC3)CC2)cc1Cl	> 100 µM (inactive)	
O=C(Nc1cc(F)ccc1F)C1CCN(c2ncnc3c2nc2n3CCCCC2)CC1	inactive	
Cc1ccc(NC(=O)C2CCN(c3ncnc4c3nc3n4CCCCC3)CC2)c(Cl)c1	> 100 µM (inactive)	
CCOc1ccc(CCNC(=O)CCCCCN2C(=O)c3ccccc3C2=O)cc1OCC	> 100 µM (inactive)	
COc1ccc(NC(=O)C2CCN(c3ncnc4c3nc3n4CCCCC3)CC2)cc1Cl	> 100 µM (inactive)	
c1nc(N2CCC(N3CCCCC3)CC2)c2nc3n(c2n1)CCCC3	> 100 µM (inactive)	
Cc1ccc(NC(=O)C2CCN(c3ncnc4c3nc3n4CCCCC3)CC2)cc1C	inactive	
c1ccc(CN2CCN(c3ncnc4c3nc3n4CCCC3)CC2)cc1	> 100 µM (inactive)	
COc1cc(Cl)c(C)cc1NC(=O)C1CCN(c2ncnc3c2nc2n3CCCCC2)CC1	> 100 µM (inactive)	
O=C(CCCCCN1C(=O)c2ccccc2C1=O)NCCc1ccccc1	> 100 µM (inactive)	
Cc1ccc(NC(=O)C2CCN(c3ncnc4c3nc3n4CCCCC3)CC2)cc1F	inactive	
O=C(Nc1ccc(CN2CCCCC2)cc1)C1CCN(c2ncnc3c2nc2n3CCCCC2)CC1	> 100 µM (inactive)	
Fc1ccccc1N1CCN(c2ncnc3c2nc2n3CCCC2)CC1	> 100 µM (inactive)	
CC1CN(S(=O)(=O)c2ccc(NC(=O)CCCCCN3C(=O)c4ccccc4C3=O)cc2)CC(C)O1 (centres undefined)	> 100 µM (inactive)	
Cc1c(Cl)cccc1NC(=O)C1CCN(c2ncnc3c2nc2n3CCCCC2)CC1	inactive	
Cc1cc(Cl)ccc1NC(=O)C1CCN(c2ncnc3c2nc2n3CCCCC2)CC1	inactive	
O=C(Nc1cccc(Cl)c1)C1CCN(c2ncnc3c2nc2n3CCCCC2)CC1		5.02
COc1ccc(Cl)cc1NC(=O)C1CCN(c2ncnc3c2nc2n3CCCCC2)CC1	inactive	
